This note sets out measurements from patent US20220162206A1, “NOVEL AZAINDOLE DERIVATIVE” (KOWA COMPANY, LTD., priority 2019, published 2022).

Molecules are shown by their SMILES.

One test addresses T1, CSF-1R (Fms, active) (Homo sapiens, UniProt P07333).
T1 construct: purchased Eurofins DiscoverX Products, LLC 14-551
In words: Evaluation of CSF-1R inhibitory activity by TR-FRET method (HTRF KinEASE-TK kit). The class given is biochemical. As to conditions: for IC50: TR-FRET method, phosphorylation of substrate peptide, enzyme 0.05 μg/mL; for inhibitory activities against CSF-1R (in words): statement referring to the Test Examples. As for the experimental part: The CSF-1R inhibitory activity of an inventive compound was evaluated by a TR-FRET method using phosphorylation of a substrate peptide of CSF-1R as the index.
The inventive compound was dissolved in dimethyl sulfoxide sterilized by filtration to prepare a 10 μmol/L solution. This solution was dispensed using an acoustic noncontact type nanoliter dispenser (Echo 550, LABCYTE Inc.) such that the final concentrations were within a range from 0.25 to 180 nmol/L.
The assay was performed using an HTRF™ KinEASE™-TK kit (Cisbio Bioassays, 62TK0PEC) by the procedure in accordance with the manual (62TK0PEC rev04(2009)). In the assay, a 384-well plate (Greiner 784076 Black 384 well, Small volume, Greiner Bio-One International GmbH) was used. The enzyme was Fms, active (14-551, Eurofins DiscoverX Products, LLC), which was prepared such that the final concentration was 0.05 μg/mL. TR-FRET measurement (fluorescence of 620 nm and 665 nm) was performed using an HTRF-dedicated microplate reader (K-101, Kyoritsu Radio Service Co., Ltd.). The proportion of the fluorescence quantity at each wavelength as the index of phosphorylation [((quantity of 665 nm fluorescence)/(quantity of 620 nm fluorescence))×10,000] was calculated, and the IC50 value was determined by statistical treatment of the proportion of the fluorescence quantity at each compound concentration.

The subject of test [1] is human non-small cell lung cancer cell line NCI-H460. In words: Antitumor effect in human non-small cell lung cancer cell line NCI-H460 subcutaneously transplanted nude mouse model. It counts as in vivo, BALB/c-nu/nu mouse. To be noted: 300 mg/kg by gavage. As to the method:
The antitumor effect of the inventive compound was examined using a human non-small cell lung cancer cell line NCI-H460 subcutaneously transplanted nude mouse model.
A cell culture medium was prepared by adding 5.6 mL of Penicillin-Streptomycin (Sigma-Aldrich Co. LLC), 56 mL of FBS (MP Biomedicals), 5.6 mL of 1 mol/L HEPES (Sigma-Aldrich Co. LLC), 5.6 mL of 100 mmol/L Sodium Pyruvate (Life Technologies), and 1.4 g of D-(+)-Glucose (Wako Pure Chemical Industries, Ltd.) to a RPMI1640 culture medium (Sigma-Aldrich Co. LLC). NCI-H460 cells (American Type Culture Collection) were cultured using the prepared culture medium at 37° C. in a 5% CO2 incubator.
The cultured NCI-H460 cells were suspended in PBS. […]
From the day of grouping, the administration solutions were administered by gavage to mice transplanted with cancer cells (15 mice in each group) for the total of 22 days, once a day on the day of the grouping and the last day and twice a day on other days. […] The administration volume was calculated from the last body weight of each.
The tumor volume of each mouse was calculated by the following equation, and the antitumor effect was evaluated using the tumor volume as the index. […]

T1 sequence (P07333 20-972): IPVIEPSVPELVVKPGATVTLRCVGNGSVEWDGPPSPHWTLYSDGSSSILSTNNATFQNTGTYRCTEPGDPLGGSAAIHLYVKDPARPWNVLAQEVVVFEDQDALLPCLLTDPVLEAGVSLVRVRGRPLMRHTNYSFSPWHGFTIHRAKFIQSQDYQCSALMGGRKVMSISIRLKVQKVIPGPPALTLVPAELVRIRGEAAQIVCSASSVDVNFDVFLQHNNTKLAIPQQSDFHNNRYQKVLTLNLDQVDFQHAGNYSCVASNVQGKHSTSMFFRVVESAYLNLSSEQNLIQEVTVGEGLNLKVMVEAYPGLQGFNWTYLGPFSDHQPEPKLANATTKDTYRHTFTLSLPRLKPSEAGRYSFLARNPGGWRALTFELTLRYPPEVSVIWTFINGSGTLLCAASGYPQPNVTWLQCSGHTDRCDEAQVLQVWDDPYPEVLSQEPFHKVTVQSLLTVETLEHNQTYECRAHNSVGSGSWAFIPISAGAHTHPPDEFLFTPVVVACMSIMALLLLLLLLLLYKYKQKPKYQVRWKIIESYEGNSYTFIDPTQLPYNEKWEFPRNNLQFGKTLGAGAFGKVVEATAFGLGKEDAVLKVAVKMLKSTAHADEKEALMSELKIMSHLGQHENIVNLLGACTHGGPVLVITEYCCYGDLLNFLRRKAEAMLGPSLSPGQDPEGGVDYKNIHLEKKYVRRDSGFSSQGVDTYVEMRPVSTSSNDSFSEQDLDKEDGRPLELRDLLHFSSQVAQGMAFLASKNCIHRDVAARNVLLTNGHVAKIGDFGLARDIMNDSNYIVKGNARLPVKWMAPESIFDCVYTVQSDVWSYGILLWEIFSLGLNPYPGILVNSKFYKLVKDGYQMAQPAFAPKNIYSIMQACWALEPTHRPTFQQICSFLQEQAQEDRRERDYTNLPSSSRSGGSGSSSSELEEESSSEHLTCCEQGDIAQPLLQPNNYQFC

Turning to `COc1ccc(-c2[nH]c3ncc(C#CCCO)cc3c2CN2CCOCC2)cc1` [Example 1, 4-(2-(4-methoxyphenyl)-3-(morpholinomethyl)-1H-pyrrolo[2,3-b]pyridin-5-yl)but-3-yn-1-ol], on CSF-1R (Fms, active), the IC50 fell in the range of 30 to 100 nM and the “inhibitory activities against CSF-1R (in words)” value (shortened to “inhibitory activities”) is reported as “potent inhibitory activities”. Further, in test [1] (22 days, last administration day, NCI-H460 nude mouse), the “Tumor growth inhibition rate (TGI %)” value worked out at 61%. Further, the “tumor growth inhibition (in words, FIG. 1)” value in test [1] (tumor volume vs Control group, Student's t test) is recorded as “significant tumor growth inhibition”.
On to `COc1ccc(-c2[nH]c3ncc(C#CCCO)cc3c2CN2C3CCC2COC3)cc1` [Example 2, 4-(3-((3-oxa-8-azabicyclo[3.2.1]octan-8-yl)methyl)-2-(4-methoxyphenyl)-1H-pyrrolo[2,3-b]pyridin-5-yl)but-3-yn-1-ol], for which, at CSF-1R (Fms, active), the IC50 was 10 to 30 nM and the “inhibitory activities” value is “potent inhibitory activities”.
The like results for `COc1ccc(-c2[nH]c3ncc(C#CCCO)cc3c2CN2CCOCC2)cc1OC` [Example 3, 4-(2-(3,4-dimethoxyphenyl)-3-(morpholinomethyl)-1H-pyrrolo[2,3-b]pyridin-5-yl)but-3-yn-1-ol] were, in that order, 10 to 30 nM and “potent inhibitory activities”.
On the same counts, the results for `OCCC#Cc1cnc2[nH]c(-c3ccc(N4CCOCC4)cc3)c(CN3CCOCC3)c2c1` [Example 4, 4-(3-(morpholinomethyl)-2-(4-morpholinophenyl)-1H-pyrrolo[2,3-b]pyridin-5-yl)but-3-yn-1-ol] are below 10 nM and “potent inhibitory activities”.
On the same counts, the results for `OCCC#Cc1cnc2[nH]c(-c3ccc(N4CCC(O)CC4)cc3)c(CN3CCOCC3)c2c1` [Example 5, 1-(4-(5-(4-hydroxybut-1-yn-1-yl)-3-(morpholinomethyl)-1H-pyrrolo[2,3-b]pyridin-2-yl)phenyl)piperidin-4-ol] are below 10 nM and “potent inhibitory activities”.
For `COc1cc(-c2[nH]c3ncc(C#CCCO)cc3c2CN2C3CCC2COC3)ccc1OC1COC1` [Example 6, 4-(3-((3-oxa-8-azabicyclo[3.2.1]octan-8-yl)methyl)-2-(3-methoxy-4-(oxetan-3-yloxy)phenyl)-1H-pyrrolo[2,3-b]pyridin-5-yl)but-3-yn-1-ol], at CSF-1R (Fms, active), the IC50 was in the range of 10 to 30 nM and the “inhibitory activities” value is recorded as “potent inhibitory activities”.
With `CC(=O)N1CC=C(c2[nH]c3ncc(C#CCCO)cc3c2CC(C)C)CC1` [Example 7, 1-(4-(5-(4-hydroxybut-1-yn-1-yl)-3-isobutyl-1H-pyrrolo[2,3-b]pyridin-2-yl)-3,6-dihydropyridin-1(2H)-yl)ethan-1-one], on CSF-1R (Fms, active), the IC50 is below 10 nM and the “inhibitory activities” value was “potent inhibitory activities”.
The like results for `CC(=O)N1CC=C(c2[nH]c3ncc(C#CCCO)cc3c2CC2CCOCC2)CC1` [Example 8, 1-(4-(5-(4-hydroxybut-1-yn-1-yl)-3-((tetrahydro-2H-pyran-4-yl)methyl)-1H-pyrrolo[2,3-b]pyridin-2-yl)-3,6-dihydropyridin-1(2H)-yl)ethan-1-one] were, in that order, below 10 nM and “potent inhibitory activities”.
With `COc1ccc(-c2[nH]c3ncc(C#CCCO)cc3c2CC2CCOCC2)cn1` [Example 9, 4-(2-(6-methoxypyridin-3-yl)-3-((tetrahydro-2H-pyran-4-yl)methyl)-1H-pyrrolo[2,3-b]pyridin-5-yl)but-3-yn-1-ol], on CSF-1R (Fms, active), the IC50 was below 10 nM and the “inhibitory activities” value is listed as “potent inhibitory activities”.
